# Results: patent publication US20260167638A1, “PHARMACEUTICAL COMPOUND, SALTS THEREOF, FORMULATIONS THEREOF, AND METHODS OF MAKING AND USING SAME” (Genentech, Inc., priority 2018, published 2026)
# Several values for one entry are separate records, joined by “and”; a condition that tells them apart may be missing. Identical values can stand only once.
# Key:
# [1] = Experimental determination of the pKa; type: physicochemical
# [2] = Dissolution and precipitation in pH 6.5 phosphate buffer at 37° C. containing HPMC; type: physicochemical; conditions: aqueous buffer
# Description: The inclusion of HPMC in the tablet of Example 16 was to maintain the supersaturation of Compound I API after its mono-tosylate salt dissolves. […]
# [3] = Solubility in pure water at 25° C. with PXRD of solid residues; type: physicochemical; conditions: for pH (24 hrs) / pH (1 hr): pH of solubility sample; for pH (24 hrs) / pH (1 hr) / S 24 hrs / S 1 hr: pure water, 25° C.; for pH (1 hr) / S 1 hr: one hour; for S 24 hrs: 24 hours equilibration
# Procedure: Using a similar strategy as described above, these salts were prepared by evaporation from a solution of free base and acid in a solvent (e.g., methanol-dichloromethane 1:1, ethyl acetate-dichloromethane 1:2, isopropanol, and the like). If necessary, an amorphous salt produced in this way was crystallized by stirring the amorphous material in an appropriate solvent (e.g., ethyl acetate, acetonitrile, and the like).
# [4] = Example 21 crossover pharmacokinetics of mono-tosylate and di-tosylate tablets in fasted dogs; type: in vivo, beagle dogs; conditions: for Individual plasma concentration of Compound I: individual dogs 1-5; for Individual plasma concentration of Compound I / Mean plasma concentration of Compound I: phase 2, di-tosylate tablet 200 mg PO; for AUC0-last / AUC0-rt / Cmax / tmax: Example 21, fasted dogs, 200 mg tablet PO
# Procedure: Pharmacokinetics parameters of formulations of Compound I and its salts in dogs were determined by orally administering a test formulation tablet at 200 mg of active (Compound I or salt) per dog.
# Blood samples were taken at various times after administration, plasma prepared, and submitted to analysis for parent drug using a qualified LC-MS-MS assay. Pharmacokinetics parameters derived from the plasma analytical data were determined using non-compartmental analysis.
# Pharmacokinetics of Compound I were determined in pentagastrin-pretreated male beagle dogs following a single oral (PO) administration at 200 mg/tablet per dog in a 2-phase crossover designed study, with a washout period of at least 7 days in between each phase. Five male, non-naive, purebred beagle dogs were used in each phase of the 2-phase crossover study. All dogs were pretreated with pentagastrin (6 μg/kg intramuscular administrations) approximately 30 minutes before test article administration.
# Two tablet formulations (mono-tosylate and di-tosylate, as described above) of test article were assessed. Animals were fasted overnight prior to PO dosing through approximately 4 hours post-dose. The tablet was administered orally, followed by approximately 10 mL of reverse osmosis water. Phase 1 animals were given tablets containing Compound I mono-tosylate, and phase 2 animals were given tablets containing Compound I di-tosylate salt. Blood samples were collected pre-dose and at 0.25, 0.5. 1. 2, 4, 8, 24, 36, and 48 hours after the oral dose. Plasma was harvested, and the concentration of Compound I in each plasma sample was determined by an LC/MS/MS assay. The assay lower limit of quantitation was 20 ng/mL for Compound I. Mean Compound I concentrations measured in plasma were used to construct semi-logarithmic plasma concentration-time curves (FIG. 1). Pharmacokinetic analysis was performed using non-compartmental methods.
# [5] = Water sorption / dynamic vapor sorption (DVS) hygroscopicity; type: physicochemical
# Procedure: The pKa value of Compound I free base was calculated (ACD Labs pKa DB, v10.0) as 2.12±0.33. Therefore, Compound I free base was considered as a very weak base that could be protonated by strong acids. […] A sample of Compound I free base was analyzed by powder x-ray diffraction and found to be crystalline without any readily detectable amorphous content. […] (onset temperature).
# The maximum water uptake for the amorphous salt was about 40% whereas the maximum water uptake for the crystalline di-hydrochloride salt was higher, with about 54% uptake.
# The hygroscopic nature of the besylate salt was examined by dynamic vapor sorption analysis (DVS). […] Below 80% relative humidity not much water was adsorbed.
# [6] = Thermal stability of salt; type: physicochemical
# Description: It was produced in a crystalline form that was easy to dry, as the residual solvent content of the obtained sample was low. The particle size distribution and crystal habits found were acceptable.
# [7] = Table 5: free base and crystalline salt forms
# [8] = Table 4: free base and amorphous salt forms
structure (smiles),measurement,setting,value
"Cn1cc(-c2cn(-c3ccc(OC(F)(F)F)cc3)c(=O)c3ncn(C)c23)cn1 [Compound I, 1-methyl-7-(1-methyl-1H-pyrazol-4-yl)-5-(4-(trifluoromethoxy)phenyl)-1,5-dihydro-4H-imidazo[4,5-c]pyridin-4-one]",pKa,[1],2.5
same,solubility,[2],~80 µg/mL
same,Solubility (24 hours),[3]; [7],57 µg/mL
same,solubility at 24 h,"[3]; water, 25 °C, water, thermodynamic from solid, Table 4: free base and amorphous salt forms",57 µg/mL
Cc1ccc(S(=O)(=O)O)cc1.Cc1ccc(S(=O)(=O)O)cc1.Cn1cc(-c2cn(-c3ccc(OC(F)(F)F)cc3)c(=O)c3ncn(C)c23)cn1 [Di-tosylate],Individual plasma concentration of Compound I,"[4]; 0.25 hours, fasted dogs, listed as Compound I di-tosylate salt",1020 ng/mL and 146 ng/mL and 309 ng/mL and 29.1 ng/mL and 670 ng/mL
same,Mean plasma concentration of Compound I,"[4]; 0.25 hours, mean, fasted dogs",536 ng/mL
same,Individual plasma concentration of Compound I,"[4]; 0.5 hours, fasted dogs, listed as Compound I di-tosylate salt",7120 ng/mL and 1820 ng/mL and 3500 ng/mL and 636 ng/mL and 2610 ng/mL
same,Mean plasma concentration of Compound I,"[4]; 0.5 hours, mean, fasted dogs",3760 ng/mL
same,Individual plasma concentration of Compound I,"[4]; 1 hour, fasted dogs, listed as Compound I di-tosylate salt",8040 ng/mL and 6510 ng/mL and 9340 ng/mL and 1600 ng/mL and 6140 ng/mL
same,Mean plasma concentration of Compound I,"[4]; 1 hour, mean, fasted dogs",7510 ng/mL
same,Individual plasma concentration of Compound I,"[4]; 2 hours, fasted dogs, listed as Compound I di-tosylate salt",8810 ng/mL and 11200 ng/mL and 13400 ng/mL and 1580 ng/mL and 8110 ng/mL
same,Mean plasma concentration of Compound I,"[4]; 2 hours, mean, fasted dogs",10400 ng/mL
same,Individual plasma concentration of Compound I,"[4]; 4 hours, fasted dogs, listed as Compound I di-tosylate salt",6820 ng/mL and 10500 ng/mL and 13100 ng/mL and 1040 ng/mL and 6440 ng/mL
same,Mean plasma concentration of Compound I,"[4]; 4 hours, mean, fasted dogs",9220 ng/mL
same,Individual plasma concentration of Compound I,"[4]; 8 hours, fasted dogs, listed as Compound I di-tosylate salt",2700 ng/mL and 5620 ng/mL and 5860 ng/mL and 368 ng/mL and 2040 ng/mL
same,Mean plasma concentration of Compound I,"[4]; 8 hours, mean, fasted dogs",4060 ng/mL
same,Individual plasma concentration of Compound I,"[4]; 24 hours, fasted dogs, listed as Compound I di-tosylate salt",231 ng/mL and 1800 ng/mL and 530 ng/mL and 35.0 ng/mL and 30.0 ng/mL
same,Mean plasma concentration of Compound I,"[4]; 24 hours, mean, fasted dogs",648 ng/mL
same,Individual plasma concentration of Compound I,"[4]; 36 hours, fasted dogs, listed as Compound I di-tosylate salt",BLQ (4×) and 273 ng/mL
same,Mean plasma concentration of Compound I,"[4]; 36 hours, mean, fasted dogs",273 ng/mL
same,Individual plasma concentration of Compound I,"[4]; 48 hours, fasted dogs, listed as Compound I di-tosylate salt",BLQ (4×) and 21.5 ng/mL
same,Mean plasma concentration of Compound I,"[4]; 48 hours, mean, fasted dogs",21.5 ng/mL
same,AUC0-last,[4]; individual subjects,62700 ng·h/mL and 129000 ng·h/mL and 113000 ng·h/mL and 9680 ng·h/mL and 47200 ng·h/mL
same,AUC0-rt,[4]; individual subjects,64100 ng·h/mL and 129000 ng·h/mL and 116000 ng·h/mL and 9890 ng·h/mL and 47300 ng·h/mL
same,Cmax,[4]; individual subjects,8810 ng/mL and 11200 ng/mL and 13400 ng/mL and 1600 ng/mL and 8110 ng/mL
same,tmax,[4]; individual subjects,2.00 h and 1.00 h
same,AUC0-last,[4]; mean,88000 ng·h/mL
same,AUC0-rt,[4]; mean,89100 ng·h/mL
same,Cmax,[4]; mean,10400 ng/mL
same,tmax,[4]; mean,2.00 h
same,Individual plasma concentration of Compound I,"[4]; Pre-dose, fasted pentagastrin-pretreated dogs",BLQ
same,Mean plasma concentration of Compound I,"[4]; Pre-dose, mean, fasted dogs",BLQ
Br.Br.Cn1cc(-c2cn(-c3ccc(OC(F)(F)F)cc3)c(=O)c3ncn(C)c23)cn1 [di-HBr crystalline],Solubility (24 hours),[3]; [7],480 µg/mL
same,pH (24 hrs),[3],1.6
same,pH (1 hr),[3],1.6
same,S 24 hrs,[3],0.48 mg/mL
same,S 1 hr,[3],0.54 mg/mL
Cl.Cl.Cn1cc(-c2cn(-c3ccc(OC(F)(F)F)cc3)c(=O)c3ncn(C)c23)cn1 [di-HCl crystalline],Solubility (24 hours),[3]; [7],760 µg/mL
same,pH (24 hrs),[3],1.5
same,pH (1 hr),[3],1.3
same,S 24 hrs,[3],0.76 mg/mL
same,S 1 hr,[3],1.14 mg/mL
Cn1cc(-c2cn(-c3ccc(OC(F)(F)F)cc3)c(=O)c3ncn(C)c23)cn1.Cn1cc(-c2cn(-c3ccc(OC(F)(F)F)cc3)c(=O)c3ncn(C)c23)cn1.O=S(=O)(O)CCS(=O)(=O)O [hemi-edisylate],reversibility of water adsorption within the timeframe of observation,[5],not reversible
same,Solubility (24 hours),[3]; [7],990 µg/mL
same,pH (24 hrs),[3],1.48
same,pH (1 hr),[3],1.42
same,S 24 hrs,[3],0.99 mg/mL
same,S 1 hr,[3],1.09 mg/mL
Cn1cc(-c2cn(-c3ccc(OC(F)(F)F)cc3)c(=O)c3ncn(C)c23)cn1.Cn1cc(-c2cn(-c3ccc(OC(F)(F)F)cc3)c(=O)c3ncn(C)c23)cn1.O=S(=O)(O)c1cccc2c(S(=O)(=O)O)cccc12 [hemi-napadisylate],reversibility of water adsorption within the timeframe of observation,[5],not reversible
same,Solubility (24 hours),[3]; [7],1830 µg/mL
same,pH (24 hrs),[3],1.53
same,pH (1 hr),[3],1.53
same,S 24 hrs,[3],1.83 mg/mL
same,S 1 hr,[3],2.76 mg/mL
Br.Cn1cc(-c2cn(-c3ccc(OC(F)(F)F)cc3)c(=O)c3ncn(C)c23)cn1 [mono-HBr amorphous],Solubility (24 hours),[3]; [8],620 µg/mL
same,pH (24 hrs),[3],1.6
same,S 24 hrs,[3],0.62 mg/mL
Br.Cn1cc(-c2cn(-c3ccc(OC(F)(F)F)cc3)c(=O)c3ncn(C)c23)cn1 [mono-HBr crystalline],pH (24 hrs),[3],1.9
same,S 24 hrs,[3],0.31 mg/mL
Cl.Cn1cc(-c2cn(-c3ccc(OC(F)(F)F)cc3)c(=O)c3ncn(C)c23)cn1 [mono-HCl amorphous],Solubility (24 hours),[3]; [8],700 µg/mL
same,pH (24 hrs),[3],1.6
same,S 24 hrs,[3],0.70 mg/mL
Cl.Cn1cc(-c2cn(-c3ccc(OC(F)(F)F)cc3)c(=O)c3ncn(C)c23)cn1 [mono-HCl crystalline],pH (24 hrs),[3],1.6
same,S 24 hrs,[3],0.42 mg/mL
Cn1cc(-c2cn(-c3ccc(OC(F)(F)F)cc3)c(=O)c3ncn(C)c23)cn1.O=[N+]([O-])O [mono-nitrate amorphous],pH (24 hrs),[3],1.9
same,S 24 hrs,[3],0.33 mg/mL
Cn1cc(-c2cn(-c3ccc(OC(F)(F)F)cc3)c(=O)c3ncn(C)c23)cn1.O=[N+]([O-])O [mono-nitrate crystalline],pH (24 hrs),[3],1.8
same,pH (1 hr),[3],1.8
same,S 24 hrs,[3],0.38 mg/mL
same,S 1 hr,[3],0.42 mg/mL
Cn1cc(-c2cn(-c3ccc(OC(F)(F)F)cc3)c(=O)c3ncn(C)c23)cn1.O=S(=O)(O)O [mono-sulfate amorphous],Solubility (24 hours),[3]; [8],840 µg/mL
same,pH (24 hrs),[3],1.4
same,pH (1 hr),[3],1.2
same,S 24 hrs,[3],0.84 mg/mL
Cn1cc(-c2cn(-c3ccc(OC(F)(F)F)cc3)c(=O)c3ncn(C)c23)cn1.O=S(=O)(O)O [mono-sulfate crystalline],thermal stability,[6],good thermal stability
same,Solubility (24 hours),[3]; [7],1540 µg/mL
same,pH (24 hrs),[3],1.2
same,pH (1 hr),[3],1.1
same,S 24 hrs,[3],1.54 mg/mL
same,S 1 hr,[3],1.73 mg/mL
